Measured values from patent US9387204B2, “Fused bicyclic imidazoles” (BAYER INTELLECTUAL PROPERTY GmbH, priority 2007, dated 2016).

tested on: A549 cells; assay: Cellular proliferation/cytotoxicity assay (Alamar Blue), A549 cells; conditions: Homo sapiens, A549, 72 h, read-out: Anti-proliferative/Cytotoxic activity (A549 cells)

Going from `Ic1cnc2nc(-c3ccc(CN4CCC(c5n[nH]c(-c6ccccn6)n5)CC4)cc3)c(-c3ccccc3)n2c1` [Example 23, 6-iodo-3-phenyl-2-(4-{[4-(5-pyridin-2-yl-1,2,4-triazol-3-yl)piperidin-1-yl]methyl}phenyl)imidazo[1,2-a]pyrimidine] to `Clc1cnc2nc(-c3ccc(CN4CCC(c5n[nH]c(-c6ccccn6)n5)CC4)cc3)c(-c3ccccc3)n2c1` [Example 21, 6-chloro-3-phenyl-2-(4-{[4-(5-pyridin-2-yl-1,2,4-triazol-3-yl)piperidin-1-yl]methyl}phenyl)imidazo[1,2-a]pyrimidine], the IC50 falls from over 10 µM to under 10 µM.

Going from `Clc1ccn2c(-c3ccccc3)c(-c3ccc(CN4CCC(c5nnc(-c6ccccn6)[nH]5)CC4)cc3)nc2c1` [Example 54, 7-chloro-3-phenyl-2-(4-{[4-(5-pyridin-2-yl-4H-1,2,4-triazol-3-yl)piperidin-1-yl]methyl}phenyl)imidazo[1,2-a]pyridine] to `O=C(O)c1ccn2c(-c3ccccc3)c(-c3ccc(CN4CCC(c5nnc(-c6ccccn6)[nH]5)CC4)cc3)nc2c1` [Example 125, 3-phenyl-2-[4-({4-[5-(pyridin-2-yl)-4H-1,2,4-triazol-3-yl]piperidin-1-yl}methyl)phenyl]imidazo[1,2-a]pyridine-7-carboxylic acid], the IC50 rises from under 10 µM to over 10 µM. The first is the more potent here.

`COc1ccn2c(-c3ccccc3)c(-c3ccc(CN4CCC(c5n[nH]c(-c6ccccn6)n5)CC4)cc3)nc2n1` [Example 24, 7-methoxy-3-phenyl-2-(4-{[4-(5-pyridin-2-yl-1,2,4-triazol-3-yl)piperidin-1-yl]methyl}phenyl)imidazo[1,2-a]pyrimidine] and `Cc1ccn2c(-c3ccccc3)c(-c3ccc(CN4CCC(c5n[nH]c(-c6ccccn6)n5)CC4)cc3)nc2n1` [Example 19, 7-methyl-3-phenyl-2-(4-{[4-(5-pyridin-2-yl-1,2,4-triazol-3-yl)piperidin-1-yl]methyl}phenyl)imidazo[1,2-a]pyrimidine] cannot be ordered by IC50: under 10 µM for the first, under 10 µM for the second.

`Fc1ccc2nc(-c3ccc(CN4CCC(c5n[nH]c(-c6ccccn6)n5)CC4)cc3)c(-c3ccccc3)n2c1` [Example 22, 6-fluoro-3-phenyl-2-(4-{[4-(5-pyridin-2-yl-1,2,4-triazol-3-yl)piperidin-1-yl]methyl}phenyl)imidazo[1,2-a]pyridine] and `c1ccc(-c2c(-c3ccc(CN4CCC(c5n[nH]c(-c6ccccn6)n5)CC4)cc3)nc3cnccn23)cc1` [Example 37, 3-phenyl-2-(4-{[4-(5-pyridin-2-yl-1,2,4-triazol-3-yl)piperidin-1-yl]methyl}phenyl)imidazo[1,2-a]pyrazine] cannot be ordered by IC50: over 10 µM for the first, over 10 µM for the second.

`Clc1ccn2c(-c3ccccc3)c(-c3ccc(CN4CCC(c5nnc(-c6ccccc6)[nH]5)CC4)cc3)nc2c1` [Example 120, 7-chloro-3-phenyl-2-(4-{[4-(5-phenyl-4H-1,2,4-triazol-3-yl)piperidin-1-yl]methyl}phenyl)imidazo[1,2-a]pyridine] and `Cc1cccc(-c2nnc(C3CCN(Cc4ccc(-c5nc6ccccn6c5-c5ccccc5)cc4)CC3)[nH]2)n1` [Example 64, 2-[4-({4-[5-(6-methylpyridin-2-yl)-4H-1,2,4-triazol-3-yl]piperidin-1-yl}methyl)phenyl]-3-phenylimidazo[1,2-a]pyridine] cannot be ordered by IC50: under 10 µM for the first, under 10 µM for the second.

Compared with `COc1ccc2nc(-c3ccc(CN4CCC(c5n[nH]c(-c6ccccn6)n5)CC4)cc3)c(-c3ccccc3)n2n1` [Example 32, 6-methoxy-3-phenyl-2-(4-{[4-(5-pyridin-2-yl-1,2,4-triazol-3-yl)piperidin-1-yl]methyl}phenyl)imidazo[1,2-b]pyridazine], `N#Cc1ccn2c(-c3ccccc3)c(-c3ccc(CN4CCC(c5n[nH]c(-c6ccccn6)n5)CC4)cc3)nc2c1` [Example 29, 3-phenyl-2-(4-{[4-(5-pyridin-2-yl-1,2,4-triazol-3-yl)piperidin-1-yl]methyl}phenyl)imidazo[1,2-a]pyridine-7-carbonitrile] is higher in IC50: under 10 µM for the first, over 10 µM for the second. The first is the more potent here.

Work on `Cc1nn2c(-c3ccccc3)c(-c3ccc(CN4CCC(c5nnc(-c6ccccn6)[nH]5)CC4)cc3)nc2s1` [Example 45, 2-methyl-5-phenyl-6-[4-({4-[5-(pyridin-2-yl)-4H-1,2,4-triazol-3-yl]piperidin-1-yl}methyl)phenyl]imidazo[2,1-b][1,3,4]thiadiazole] yielded an IC50 of over 10 µM.

same assay, conditions: read-out: Anti-proliferative/Cytotoxic activity (A549 cells); A549 cells, 72 h, Alamar Blue (Resazurin)

`Cc1cccc(-c2nnc(C3CCN(Cc4ccc(-c5nc6scnn6c5-c5ccccc5)cc4)CC3)[nH]2)n1` [Example 67, ′6-[4-({4-[5-(6-methylpyridin-2-yl)-4H-1,2,4-triazol-3-yl]piperidin-1-yl}methyl)phenyl]-5-phenylimidazo[2,1-b][1,3,4]thiadiazole] and `c1ccc(-c2c(-c3ccc(CN4CCC(c5nnc(-c6cccs6)[nH]5)CC4)cc3)nc3scnn23)cc1` [Example 101, ′5-phenyl-6-[4-({4-[5-(2-thienyl)-4H-1,2,4-triazol-3-yl]piperidin-1-yl}methyl)phenyl]imidazo[2,1-b][1,3,4]thiadiazole] cannot be ordered by IC50: under 10 µM for the first, under 10 µM for the second.

First: c1ccc(-c2c(-c3ccc(CN4CCC(c5noc(-c6ccccn6)n5)CC4)cc3)nc3ncccn23)cc1 [Example 116, ′3-phenyl-2-(4-{[4-(5-pyridin-2-yl-1,2,4-oxadiazol-3-yl)piperidin-1-yl]methyl}phenyl)imidazo[1,2-a]pyrimidine]
Second: c1ccc(-c2c(-c3ccc(CN4CCC(c5n[nH]c(-c6nccs6)n5)CC4)cc3)nc3ncccn23)cc1 [Example 84, ′3-phenyl-2-[4-({4-[5-(1,3-thiazol-2-yl)-1H-1,2,4-triazol-3-yl]piperidin-1-yl}methyl)phenyl]imidazo[1,2-a]pyrimidine]
The IC50 of the first is lower: under 10 µM for the first, over 10 µM for the second. The first is the more potent here.

`Cc1ccc2nc(-c3ccc(CN4CCC(c5nnc(-c6ccc[nH]6)[nH]5)CC4)cc3)c(-c3ccccc3)n2n1` [Example 104, ′6-methyl-3-phenyl-2-[4-({4-[5-(1H-pyrrol-2-yl)-4H-1,2,4-triazol-3-yl]piperidin-1-yl}methyl)phenyl]imidazo[1,2-b]pyridazine] and `c1ccc(-c2c(-c3ccc(CN4CCC(c5nnc(-c6ccc[nH]6)[nH]5)CC4)cc3)nc3scnn23)cc1` [Example 108, ′5-phenyl-6-[4-({4-[5-(1H-pyrrol-2-yl)-4H-1,2,4-triazol-3-yl]piperidin-1-yl}methyl)phenyl]imidazo[2,1-b][1,3,4]thiadiazole] cannot be ordered by IC50: under 10 µM for the first, under 10 µM for the second.

First: c1ccc(-c2c(-c3ccc(CN4CCC(c5cc(-c6ccccn6)[nH]n5)CC4)cc3)nc3sccn23)cc1 [Example 113, ′5-phenyl-6-(4-{[4-(5-pyridin-2-yl-1H-pyrazol-3-yl)piperidin-1-yl]methyl}phenyl)imidazo[2,1-b][1,3]thiazole]
Second: c1ccc(-c2c(-c3ccc(CN4CCC(c5nnc(-c6nccs6)[nH]5)CC4)cc3)nc3ccccn23)cc1 [Example 85, ′3-phenyl-2-[4-({4-[5-(1,3-thiazol-2-yl)-4H-1,2,4-triazol-3-yl]piperidin-1-yl}methyl)phenyl]imidazo[1,2-a]pyridine]
The IC50 of the first is lower: under 10 µM for the first, over 10 µM for the second. The first is the more potent here.

Work on `N#Cc1ccn2c(-c3ccccc3)c(-c3ccc(CN4CCC(c5nnc(-c6ccc[nH]6)[nH]5)CC4)cc3)nc2c1` [Example 110, ′3-phenyl-2-[4-({4-[5-(1H-pyrrol-2-yl)-4H-1,2,4-triazol-3-yl]piperidin-1-yl}methyl)phenyl]imidazo[1,2-a]pyridine-7-carbonitrile] yielded an IC50 of under 10 µM.
